Measured values: patent publication US20250236589A1, “THERAPEUTIC PHENETHYLAMINE COMPOSITIONS AND METHODS OF USE” (Cybin IRL Limited, priority 2022, published 2025)
Read-outs that look alike come from different tables or passages of the source.

Columns and labels:
[1] = test system: Calcium Channel L-Type, Phenylalkylamine, verapamil site (rat cortex); assay: Off-target screen, radioligand displacement at 10 μM; format: binding; settings: antagonist radioligand
[2] = In vitro liver microsome stability (RLM); format: in vitro ADME; settings: rat, rat liver microsomes, 0.5 mg/mL microsomes, NADPH, read-out: RLM, t1/2
Procedure: In vitro stability was determined in Human (HLM), Rat (RLM), Mouse (MsLM), and dog (DLM) Liver Microsomes. All liver microsomes were purchased from a commercial supplier (e.g. XenoTech). The reaction mixture, minus NADPH, was prepared as described below. The test compound was added into the reaction mixture at a final concentration of 1 μM or co-dosed with their deuterated analog(s) at 1 μM each. The control compound, testosterone, was run simultaneously with the test compound in a separate reaction. The reaction mixture (without cofactor) was equilibrated in a shaking water bath at 37° C. for 5 minutes. The reaction was initiated by the addition of the cofactor, and the mixture was incubated in a shaking water bath at 37° C. Aliquots (150 μL) were withdrawn at 0, 5, 10, 20, 30, 60, and 120 minutes. Test compound and testosterone samples were immediately combined with 150 μL of ice-cold acetonitrile (ACN) containing 0.1% formic acid and internal standard to terminate the reaction. The samples were then mixed and centrifuged to precipitate proteins. All samples were assayed by LC-MS/MS using electrospray ionization. The peak area response ratio (PARR) of analyte to internal standard at each time point was compared to the PARR at time 0 to determine the percent remaining at each time point. Half-lives were calculated using GraphPad software, fitting to a single-phase exponential decay equation.

[3] = PK profile in C57BL/6J mice (plasma, brain); format: in vivo, mouse; settings: for Kp / half-life / AUC(0-t) / Cmax / MRT last / Tmax / AUC(0-inf): male, C57BL/6J, mouse; for Kp: brain/plasma, read-out: Brain/Plasma ratio (AUCINF); for AUC(0-inf): read-out: AUCINF—obs
Procedure: PK Profile in Mice. To evaluate the full PK profile for I-1 in mice, plasma and brain samples were determined in male C57BL/6J mice following subcutaneous (s.c.) and oral (p.o.) administration at 3 mg/kg (see Table 7 and FIGS. 54A and 54B). In a typical experiment, blood was collected via cardiac puncture (N=3 animals per time point, 9 time points) up to 24 hours post dose. Plasma and brain concentrations were determined using LC-MS/MS and PK parameters were determined using a non-compartmental analysis (NCA) using Phoenix WinNonlin Pro (v8.3.1, Pharsight, Inc, USA) software.

[4] = PK profile in Wistar rats (plasma, brain, urine); format: in vivo, rat
Procedure: PK profile in Rats. To evaluate the full PK profile for I-1 in rats, plasma and brain pharmacokinetic and urinary excretion of I-1 in male Wistar rats after IV dose at 1 mg/kg and an oral (p.o.) dose at 5 mg/kg administration were determined. Plasma, brain, and urine samples were collected at specified time points after single dose administration of I-1 and quantification of I-1 in the samples was accomplished using LC-MS/MS. The pharmacokinetic parameters were determined as described above.

[5] = test system: bdnf, homer1, Egr2, cFos mRNA (frontal cortex); assay: Brain markers of neuroplasticity, gene expression in frontal cortex; format: in vivo, mouse
Procedure: To evaluate the effects of I-1 on brain markers of neuroplasticity, male C57BL/6J mice were dosed as described in Table 10.
On Day 4, the animals were euthanized 2 hours post-dose. The left frontal cortex was dissected and stored in RNAlater.
Data were log transformed and analyzed by one-way analysis of variance. Each treatment was compared to vehicle by multiple comparisons. […] Moreover, increased homer1 expression, which is associated with the formation of postsynaptic scaffolds that cluster and colocalize NMDAR and mGluR was observed (FIG. 57C); and increased Egr2 expression, a […] that has been proposed to be a marker for psychedelic activation of 5-HT2A receptors (Gonzalez-Maeso et al., Transcriptome fingerprints distinguish hallucinogenic and nonhallucinogenic 5-hydroxytryptamine 2A receptor agonist effects in mouse somatosensory cortex. J Neurosci. 2003; 23(26), 8836-43) was observed (FIG. 57D). Upregulation of bdnf, a neurotrophin that regulates the survival and growth of neurons and influences synaptic efficiency and plasticity, was also observed (FIG. 57A).

[6] = male, Wistar, rat, po, brain, p.o. 5 mg/kg
[7] = male, Wistar, rat, po, plasma, p.o. 5 mg/kg
[8] = male, Wistar, rat, brain, IV 1 mg/kg
[9] = male, Wistar, rat, plasma, IV 1 mg/kg
[10] = 2 h after fourth dose of 0.3 mg/kg s.c. (group C) vs vehicle
[11] = 2 h after single 3 mg/kg s.c. (group B) vs vehicle

For COc1cc(CC(C)N)c(OC)cc1I (racemic) [DOI, (±)-2,5-dimethoxy-4-iodoamphetamine, reference compound], which “inhibition at 10 µM” value [1] is on record?
The value was 55.5% inhibition at 10 μM.

Which results are given for COc1cc(SC(F)(F)F)c(OC)cc1CCN [Compound I-1, 2-(2,5-dimethoxy-4-((trifluoromethyl)thio)phenyl)ethan-1-amine]?
half-life at 1 μM [2]: 0.92 h; AUCINF ([3]; brain, p.o. 3 mg/kg): 16171 ng·h/g; T1/2 ([3]; brain, p.o. 3 mg/kg): 2.73 h; peak brain concentration ([3]; brain, p.o. 3 mg/kg): 2366 ng/g; AUCINF ([3]; brain, s.c. 3 mg/kg): 22487 ng·h/g; T1/2 ([3]; brain, s.c. 3 mg/kg): 3.15 h; peak brain concentration ([3]; brain, s.c. 3 mg/kg): 3165 ng/g; Kp ([3]; po, p.o. 3 mg/kg): 25.8; Kp ([3]; sc, s.c. 3 mg/kg): 30.7; half-life ([3]; plasma and brain, other: subcutaneous and oral (range over both routes), 3 mg/kg, across route of administration and tissue, read-out: elimination T1/2): 2.73 to 3.92 h; AUC(0-t) ([3]; po, brain, p.o. 3 mg/kg): 16100 ng·h/mL; Cmax ([3]; po, brain, p.o. 3 mg/kg): 2370 ng/mL; MRT last ([3]; po, brain, p.o. 3 mg/kg): 5.35 h; Tmax ([3]; po, brain, p.o. 3 mg/kg): 1 h; AUC(0-inf) ([3]; po, brain, p.o. 3 mg/kg): 16200 ng·h/mL; half-life ([3]; po, brain, p.o. 3 mg/kg, read-out: T1/2 (converted)): 2.73 h; AUC(0-t) ([3]; po, plasma, p.o. 3 mg/kg): 625 ng·h/mL; Cmax ([3]; po, plasma, p.o. 3 mg/kg): 175 ng/mL; MRT last ([3]; po, plasma, p.o. 3 mg/kg): 3.01 h; Tmax ([3]; po, plasma, p.o. 3 mg/kg): 1 h; AUC(0-inf) ([3]; po, plasma, p.o. 3 mg/kg): 784 ng·h/mL; half-life ([3]; po, plasma, p.o. 3 mg/kg, read-out: T1/2 (converted)): 3.3 h; AUC(0-t) ([3]; sc, brain, s.c. 3 mg/kg): 22500 ng·h/mL; Cmax ([3]; sc, brain, s.c. 3 mg/kg): 3160 ng/mL; MRT last ([3]; sc, brain, s.c. 3 mg/kg): 4.89 h; Tmax ([3]; sc, brain, s.c. 3 mg/kg): 2 h; AUC(0-inf) ([3]; sc, brain, s.c. 3 mg/kg): 22500 ng·h/mL; half-life ([3]; sc, brain, s.c. 3 mg/kg, read-out: T1/2 (converted)): 3.15 h; AUC(0-t) ([3]; sc, plasma, s.c. 3 mg/kg): 731 ng·h/mL; Cmax ([3]; sc, plasma, s.c. 3 mg/kg): 188 ng/mL; MRT last ([3]; sc, plasma, s.c. 3 mg/kg): 2.96 h; Tmax ([3]; sc, plasma, s.c. 3 mg/kg): 0.08 h; AUC(0-inf) ([3]; sc, plasma, s.c. 3 mg/kg): 1000 ng·h/mL; half-life ([3]; sc, plasma, s.c. 3 mg/kg, read-out: T1/2 (converted)): 3.92 h; % Frelative po (AUCINF) ([3]; plasma, oral relative to subcutaneous): 78.3%; T1/2 ([3]; plasma, s.c. 3 mg/kg): 3.92 h; mean total amount recovered in urine ([4]; IV 1 mg/kg, n=2): 718 ng; % F (AUCINF) ([4]; absolute oral bioavailability, p.o. 5 mg/kg): 19.1%; Cmax, brain concentration ([4]; brain, IV 1 mg/kg): 890 ng/g; T1/2 ([4]; brain, IV 1 mg/kg): 2.44 h; Cmax, brain concentration ([4]; brain, p.o. 5 mg/kg): 402 ng/g; T1/2 ([4]; brain, p.o. 5 mg/kg): 4.71 h; total systemic clearance relative to total hepatic blood flow ([4]; hepatic blood flow 3.3 L/hr/kg): approximately 6 fold; head twitching observed ([4]; immediately after IV 1 mg/kg, 1.5 hr after oral 5 mg/kg): mild to moderate-grade head twitching; Tmax ([4]; male, Wistar, rat, brain, iv, 1 mg/kg, IV 1 mg/kg): 0.5 h; Tmax ([4]; male, Wistar, rat, brain, po, 5 mg/kg, p.o. 5 mg/kg): 2 h; Tmax ([4]; male, Wistar, rat, plasma, iv, 1 mg/kg, IV 1 mg/kg): 0.083 h; AUC(0-inf) [4, 6]: 2880 ng·h/mL; AUC(0-t) [4, 6]: 1860 ng·h/mL; Cmax [4, 6]: 402 ng/mL; MRT last [4, 6]: 3.3 h; half-life [4, 6]: 4.71 h; AUC(0-inf) [4, 7]: 49.7 ng·h/mL; AUC(0-t) [4, 7]: 40.3 ng·h/mL; Cmax [4, 7]: 18.6 ng/mL; MRT last [4, 7]: 2.25 h; half-life [4, 7]: 3.53 h; CL renal ([4]; male, Wistar, rat, urine, IV 1 mg/kg, read-out: Renal clearance (converted)): 1.14 mL/min/kg; dose excreted ([4]; male, Wistar, rat, urine, IV 1 mg/kg, read-out: percentage recovery in urine): 0.07%; AUC(0-inf) [4, 8]: 3260 ng·h/mL; AUC(0-t) [4, 8]: 2910 ng·h/mL; Cmax [4, 8]: 890 ng/mL; MRT last [4, 8]: 2.54 h; half-life [4, 8]: 2.44 h; AUC(0-inf) [4, 9]: 50.7 ng·h/mL; AUC(0-t) [4, 9]: 42.2 ng·h/mL; Cmax [4, 9]: 54.1 ng/mL; MRT last [4, 9]: 0.62 h; clearance [4, 9]: 328 mL/min/kg; half-life [4, 9]: 0.78 h; C0 ([4]; male, Wistar, rat, plasma, IV 1 mg/kg, extrapolated): 67.2 ng/mL; Vd ([4]; male, Wistar, rat, plasma, IV 1 mg/kg, read-out: Vz): 22.2 L/kg; Cl ([4]; plasma, IV 1 mg/kg): 328 mL/min/kg; T1/2 ([4]; plasma, IV 1 mg/kg): 0.78 h; T1/2 ([4]; plasma, p.o. 5 mg/kg): 3.53 h; volume of distribution relative to total body water ([4]; total body water 0.7 L/kg): approximately 32 fold; Egr2 mRNA expression [5, 10]: Increased expression; homer1 mRNA expression [5, 10]: Increased expression; Egr2 (krox20) mRNA expression [5, 11]: Increased expression; bdnf mRNA expression [5, 11]: Increased expression; cFos mRNA expression [5, 11]: Increased expression; homer1 mRNA expression [5, 11]: Increased expression
